Values quoted from earlier work, collected in US20120070506A1, “Animal Treatment” (BOMAC RESEARCH LIMITED, priority 2009, published 2012).

Tested on: animals
Conditions: veterinary treatment

Which known adverse effect does the source give for `CC(C(=O)O)c1ccc2c(c1)[nH]c1ccc(Cl)cc12` (stereo not drawn) [carprofen, 6-chloro-alpha-methyl-9H-carbozole-2-acetic acid] here?
Its known adverse effect is “hepatotoxicity (acute hepatic necrosis) or other liver damage”.
